Data published in PubChem BioAssay (NCI).
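Assay format: 96-well plates, 48-hour exposure. Definition used: TGI = concentration required for complete inhibition of growth.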

Columns and labels:
Assay in all cases: DTP human tumour cell line panel, 48 h
786-0 renal = system: 786-0 renal
CAKI-1 renal = system: CAKI-1 renal
COLO 205 colon = system: COLO 205 colon
EKVX NSCLC = system: EKVX NSCLC
HCT-116 colon = system: HCT-116 colon
HOP-92 NSCLC = system: HOP-92 NSCLC
HT29 colon = system: HT29 colon
K-562 leukemia = system: K-562 leukemia
KM12 colon = system: KM12 colon
LOX IMVI melanoma = system: LOX IMVI melanoma
OVCAR-8 ovarian = system: OVCAR-8 ovarian
SF-268 CNS = system: SF-268 CNS
SF-295 CNS = system: SF-295 CNS
SK-MEL-2 melanoma = system: SK-MEL-2 melanoma
SK-MEL-28 melanoma = system: SK-MEL-28 melanoma
SNB-19 CNS = system: SNB-19 CNS
SW-620 colon = system: SW-620 colon
TK-10 renal = system: TK-10 renal
MDA-MB-231 breast = system: MDA-MB-231 breast

In the case of `CC(=O)OC1CC2C(C)(C)C(=O)C=C[C@]2(C)C2CCC3(C)C(c4ccoc4)[C@@H](O)[C@H]4O[C@]43[C@]12C` (stereo not given in full), the TGI (786-0 renal) is reported as 31.4 µM, the TGI (CAKI-1 renal) is reported as 45.6 µM and the TGI (COLO 205 colon) is reported as 37.6 µM. The TGI (EKVX NSCLC) was over 100 µM, the TGI (HCT-116 colon) was 51.9 µM and the TGI (HOP-92 NSCLC) was 39.9 µM. For the same molecule, the TGI (HT29 colon) was 40.3 µM, the TGI (K-562 leukemia) was 39.5 µM and the TGI (KM12 colon) was 35.1 µM. It also gave a TGI (LOX IMVI melanoma) of 31.3 µM, a TGI (OVCAR-8 ovarian) of 36.2 µM and a TGI (SF-268 CNS) of 51.8 µM. For the same molecule, the TGI (SF-295 CNS) was 42.5 µM, the TGI (SK-MEL-2 melanoma) was 39.6 µM and the TGI (SK-MEL-28 melanoma) was 40.5 µM. The TGI (SNB-19 CNS) was 59.6 µM, the TGI (SW-620 colon) was 35.4 µM and the TGI (TK-10 renal) was 88.7 µM.
`COC(=O)c1cc(C)ccc1C1CN=NC12Cc1cccc(C)c1C2=O` (stereo not given) was tested, and the TGI (786-0 renal) was over 100 µM, the TGI (CAKI-1 renal) was over 100 µM and the TGI (EKVX NSCLC) was 95.6 µM. The TGI (HCT-116 colon) was 70.5 µM, the TGI (HOP-92 NSCLC) was over 100 µM and the TGI (HT29 colon) was over 100 µM. It also gave a TGI (K-562 leukemia) of over 100 µM, a TGI (KM12 colon) of 79.7 µM and a TGI (LOX IMVI melanoma) of 53 µM. It also gave a TGI (MDA-MB-231 breast) of 75.5 µM, a TGI (OVCAR-8 ovarian) of over 100 µM and a TGI (SF-268 CNS) of over 100 µM. It also gave a TGI (SF-295 CNS) of over 100 µM, a TGI (SK-MEL-28 melanoma) of over 100 µM and a TGI (SNB-19 CNS) of over 100 µM. For the same molecule, the TGI (SW-620 colon) was over 100 µM and the TGI (TK-10 renal) was over 100 µM.
`CCOC(=O)C(C(=O)OCC)=C1N[C@H](C(=O)OCC)CS1` showed a TGI (786-0 renal) of over 100 µM, a TGI (CAKI-1 renal) of over 100 µM and a TGI (COLO 205 colon) of over 100 µM. The TGI (EKVX NSCLC) was over 100 µM, the TGI (HCT-116 colon) was over 100 µM and the TGI (HT29 colon) was over 100 µM. The TGI (K-562 leukemia) was over 100 µM, the TGI (KM12 colon) was over 100 µM and the TGI (LOX IMVI melanoma) was over 100 µM. The TGI (OVCAR-8 ovarian) was over 100 µM, the TGI (SF-268 CNS) was over 100 µM and the TGI (SF-295 CNS) was over 100 µM. The TGI (SK-MEL-2 melanoma) was over 100 µM, the TGI (SK-MEL-28 melanoma) was over 100 µM and the TGI (SNB-19 CNS) was over 100 µM. The TGI (SW-620 colon) was over 100 µM.
Molecule `c1ccc(CN2CCCCC(Sc3ccccc3)CC2)cc1` (stereo not given) has a TGI (786-0 renal) of 31.6 µM, a TGI (CAKI-1 renal) of 69.6 µM and a TGI (COLO 205 colon) of 26.2 µM. It also gave a TGI (EKVX NSCLC) of over 100 µM, a TGI (HCT-116 colon) of 43.9 µM and a TGI (HOP-92 NSCLC) of 78.8 µM. For the same molecule, the TGI (HT29 colon) was 33.5 µM, the TGI (K-562 leukemia) was 35 µM and the TGI (KM12 colon) was over 100 µM. The TGI (LOX IMVI melanoma) was 30.6 µM, the TGI (OVCAR-8 ovarian) was over 100 µM and the TGI (SF-268 CNS) was over 100 µM. It also gave a TGI (SF-295 CNS) of over 100 µM, a TGI (SK-MEL-2 melanoma) of 90.5 µM and a TGI (SK-MEL-28 melanoma) of over 100 µM. The TGI (SNB-19 CNS) was over 100 µM, the TGI (SW-620 colon) was 4.98 µM and the TGI (TK-10 renal) was over 100 µM.
For `NC(=O)NC1=NC(Cc2ccccc2)C(=O)N1Cc1ccccc1` (stereo not given), the TGI (786-0 renal) was over 100 µM, the TGI (COLO 205 colon) was over 100 µM and the TGI (EKVX NSCLC) was over 100 µM. For the same molecule, the TGI (HCT-116 colon) was over 100 µM, the TGI (HT29 colon) was over 100 µM and the TGI (K-562 leukemia) was over 100 µM. For the same molecule, the TGI (KM12 colon) was over 100 µM, the TGI (LOX IMVI melanoma) was over 100 µM and the TGI (OVCAR-8 ovarian) was over 100 µM. It also gave a TGI (SF-268 CNS) of over 100 µM, a TGI (SF-295 CNS) of over 100 µM and a TGI (SK-MEL-28 melanoma) of over 100 µM. It also gave a TGI (SNB-19 CNS) of over 100 µM, a TGI (SW-620 colon) of over 100 µM and a TGI (TK-10 renal) of over 100 µM.
`CC1=CC(=O)c2c(C=O)c(O)c(O)c(C(C)C)c2C1=O` was tested, and the TGI (786-0 renal) was 45.5 µM, the TGI (CAKI-1 renal) was 52.9 µM and the TGI (COLO 205 colon) was 57.4 µM. For the same molecule, the TGI (HCT-116 colon) was 38.5 µM, the TGI (HOP-92 NSCLC) was 45.5 µM and the TGI (K-562 leukemia) was over 100 µM. For the same molecule, the TGI (LOX IMVI melanoma) was 27.6 µM, the TGI (OVCAR-8 ovarian) was over 56.5 µM and the TGI (SF-268 CNS) was 77.2 µM. It also gave a TGI (SK-MEL-2 melanoma) of 57.5 µM, a TGI (SK-MEL-28 melanoma) of over 100 µM and a TGI (SNB-19 CNS) of over 100 µM.
Work on `C=C(Br)C(C)(Br)CCC(Br)C(C)(C)Br` (stereo not given) yielded a TGI (786-0 renal) of 44.5 µM, a TGI (CAKI-1 renal) of over 100 µM and a TGI (COLO 205 colon) of 35.8 µM. The TGI (HCT-116 colon) was 47.7 µM, the TGI (HOP-92 NSCLC) was 40.6 µM and the TGI (HT29 colon) was over 100 µM. It also gave a TGI (K-562 leukemia) of over 100 µM, a TGI (KM12 colon) of over 100 µM and a TGI (LOX IMVI melanoma) of 31 µM. It also gave a TGI (OVCAR-8 ovarian) of 33.3 µM, a TGI (SF-268 CNS) of 91 µM and a TGI (SF-295 CNS) of 62 µM. The TGI (SK-MEL-2 melanoma) was 55.7 µM, the TGI (SK-MEL-28 melanoma) was 46.3 µM and the TGI (SW-620 colon) was 70.9 µM. For the same molecule, the TGI (TK-10 renal) was over 100 µM.
With `C=C1CC2CC(=O)C(O)C(C1)C2` (stereo not given) the TGI (786-0 renal) was over 100 µM, the TGI (CAKI-1 renal) was over 100 µM and the TGI (COLO 205 colon) was over 100 µM. It also gave a TGI (EKVX NSCLC) of over 100 µM, a TGI (HCT-116 colon) of over 100 µM and a TGI (HOP-92 NSCLC) of over 100 µM. For the same molecule, the TGI (HT29 colon) was over 100 µM, the TGI (K-562 leukemia) was over 100 µM and the TGI (KM12 colon) was over 100 µM. It also gave a TGI (LOX IMVI melanoma) of over 100 µM, a TGI (OVCAR-8 ovarian) of over 100 µM and a TGI (SF-268 CNS) of over 100 µM. It also gave a TGI (SF-295 CNS) of over 100 µM, a TGI (SW-620 colon) of over 100 µM and a TGI (TK-10 renal) of over 100 µM.
Molecule `CC(=O)c1ccc(NC(=O)C(=O)C(C(=O)c2ccc(Cl)c(Cl)c2)C2OC(=O)c3ccccc32)cc1` (stereo not given) has a TGI (786-0 renal) of 33.8 µM, a TGI (CAKI-1 renal) of over 100 µM and a TGI (COLO 205 colon) of 28.8 µM. For the same molecule, the TGI (EKVX NSCLC) was over 100 µM, the TGI (HCT-116 colon) was 25.8 µM and the TGI (HOP-92 NSCLC) was 78.4 µM. For the same molecule, the TGI (HT29 colon) was 67.7 µM, the TGI (K-562 leukemia) was over 100 µM and the TGI (KM12 colon) was 38.1 µM. The TGI (LOX IMVI melanoma) was 32.6 µM, the TGI (OVCAR-8 ovarian) was 27.6 µM and the TGI (SF-268 CNS) was 38.2 µM. For the same molecule, the TGI (SNB-19 CNS) was over 100 µM, the TGI (SW-620 colon) was over 100 µM and the TGI (TK-10 renal) was over 100 µM.
For `Cc1c(C(=O)/C=C/c2c(Cl)cccc2Cl)c(=O)n(-c2ccccc2)n1C`, the TGI (786-0 renal) was 38.6 µM, the TGI (CAKI-1 renal) was over 100 µM and the TGI (COLO 205 colon) was over 100 µM. For the same molecule, the TGI (EKVX NSCLC) was over 100 µM, the TGI (HCT-116 colon) was over 100 µM and the TGI (HOP-92 NSCLC) was 74.6 µM. It also gave a TGI (HT29 colon) of over 100 µM, a TGI (KM12 colon) of 44.8 µM and a TGI (LOX IMVI melanoma) of 41.8 µM. For the same molecule, the TGI (OVCAR-8 ovarian) was over 100 µM, the TGI (SF-268 CNS) was over 100 µM and the TGI (SF-295 CNS) was 75.9 µM. It also gave a TGI (SK-MEL-2 melanoma) of 75 µM, a TGI (SK-MEL-28 melanoma) of over 100 µM and a TGI (SNB-19 CNS) of over 100 µM. The TGI (SW-620 colon) was 25.9 µM and the TGI (TK-10 renal) was over 100 µM.
With `COCCN(CCOC)C(=O)COc1c2cc(C(C)(C)C)cc1Cc1cc(C(C)(C)C)cc(c1OCC(=O)N(CCOC)CCOC)Cc1cc(C(C)(C)C)cc(c1OCC(=O)N(CCOC)CCOC)Cc1cc(C(C)(C)C)cc(c1OCC(=O)N(CCOC)CCOC)Cc1cc(C(C)(C)C)cc(c1OCC(=O)N(CCOC)CCOC)C2` the TGI (786-0 renal) was 12.2 µM, the TGI (COLO 205 colon) was 1.96 µM and the TGI (EKVX NSCLC) was 2.8 µM. The TGI (HCT-116 colon) was 3.78 µM, the TGI (HT29 colon) was 8.13 µM and the TGI (KM12 colon) was 11.1 µM. The TGI (LOX IMVI melanoma) was 8.92 µM, the TGI (MDA-MB-231 breast) was 5.06 µM and the TGI (OVCAR-8 ovarian) was 22.8 µM. The TGI (SF-268 CNS) was 19.1 µM, the TGI (SF-295 CNS) was 6.43 µM and the TGI (SK-MEL-2 melanoma) was 3.19 µM. For the same molecule, the TGI (SK-MEL-28 melanoma) was 18.6 µM, the TGI (SNB-19 CNS) was 16.4 µM and the TGI (SW-620 colon) was 11.9 µM. The TGI (TK-10 renal) was 15 µM.
